Reference: patent US20100048696A1, “AGRICULTURAL DISEASE CONTROL AGENT” (Idemitsu Kosan Co., Ltd., priority 2007, published 2010)
Where two headings read alike, the source gives them in different places.

Legend:
Botrytis cinerea = assay: Material disinfection test; assay type: cell-based; conditions: 5 minutes
Fusarium oxysporum = assay: Material disinfection test; assay type: cell-based; conditions: 5 minutes
[1] = test system: Erwinia carotovora var. cartovora; assay: Test using potatoes: blackleg pathogenesis after cutting with disinfected knife; assay type: in vivo, potatoes Norin No. 1; conditions: for Degree of pathogenesis: knife immersed 5 seconds at 5° C., average of 5 potatoes, about two months after seeding
Burkholderia plantarii = assay: Material disinfection test; assay type: cell-based; conditions: 5 minutes
Pyricularia oryzae = assay type: cell-based; conditions: 5 minutes
[2] = test system: bacteria pathogens and filamentous fungi pathogens; assay type: cell-based
[3] = test system: Erwinia carotovora var. cartovora; assay: Basic test: cutting knife disinfection, blackleg pathogens; assay type: cell-based; conditions: knife immersed 5 seconds
[4] = test system: Clavibacter michiganense subsp. Nebraskense (ATCC27822); assay: Basic test: cutting knife disinfection, ring rot pathogens; assay type: cell-based; conditions: knife immersed 5 seconds
Pythium ultimum = assay: Material disinfection test; assay type: cell-based; conditions: 5 minutes
Erwinia chrysanthemi = assay: Material disinfection test; assay type: cell-based; conditions: 5 minutes
Burkholderia glumae = assay: Material disinfection test; assay type: cell-based; conditions: 5 minutes
Ralstonia solanacearum = assay type: cell-based; conditions: 5 minutes
Rhizoctonia solani = assay: Material disinfection test; assay type: cell-based; conditions: 5 minutes

## O=C(O)/C=C\C(=O)O [Maleic acid]
Botrytis cinerea; 2 times solution sprayed
  average value of viable filamentous fungi counts on all materials examined: 0 cfu/ml
Botrytis cinerea; 5 times solution sprayed
  average value of viable filamentous fungi counts on all materials examined: 0 cfu/ml
Botrytis cinerea; 25 times solution sprayed
  average value of viable filamentous fungi counts on all materials examined: 0 cfu/ml
Botrytis cinerea; 50 times solution sprayed
  average value of viable filamentous fungi counts on all materials examined: 0 cfu/ml
Botrytis cinerea; 100 times solution sprayed
  average value of viable filamentous fungi counts on all materials examined: 0 cfu/ml
Botrytis cinerea; 200 times solution sprayed
  average value of viable filamentous fungi counts on all materials examined: 1.7 × 10^2 cfu/ml
Botrytis cinerea; 500 times solution sprayed
  average value of viable filamentous fungi counts on all materials examined: 1.0 × 10^2 cfu/ml
Fusarium oxysporum; 2 times solution sprayed
  average value of viable filamentous fungi counts on all materials examined: 0 cfu/ml
Fusarium oxysporum; 5 times solution sprayed
  average value of viable filamentous fungi counts on all materials examined: 0 cfu/ml
Fusarium oxysporum; 25 times solution sprayed
  average value of viable filamentous fungi counts on all materials examined: 0 cfu/ml
Fusarium oxysporum; 50 times solution sprayed
  average value of viable filamentous fungi counts on all materials examined: 0 cfu/ml
Fusarium oxysporum; 100 times solution sprayed
  average value of viable filamentous fungi counts on all materials examined: 0 cfu/ml
Fusarium oxysporum; 200 times solution sprayed
  average value of viable filamentous fungi counts on all materials examined: 1.1 × 10^2 cfu/ml
Fusarium oxysporum; 500 times solution sprayed
  average value of viable filamentous fungi counts on all materials examined: 7.8 × 10^2 cfu/ml
[1]; 5 times solution
  Degree of pathogenesis: 0
[1]; 5 to 10 times solution
  sterilization in test using potatoes (in words): complete sterilization
[1]; 10 times solution
  Degree of pathogenesis: 0
[1]; 50 times solution
  sterilization effect in test using potatoes (in words): high sterilization effect
  Degree of pathogenesis: 3 (20 to less than 40%)
Burkholderia plantarii; 2 times solution sprayed
  Average value of viable bacteria counts on all materials examined: 0 cfu/ml
Burkholderia plantarii; 5 times solution sprayed
  Average value of viable bacteria counts on all materials examined: 0 cfu/ml
Burkholderia plantarii; 25 times solution sprayed
  Average value of viable bacteria counts on all materials examined: 0 cfu/ml
Burkholderia plantarii; 50 times solution sprayed
  Average value of viable bacteria counts on all materials examined: 0 cfu/ml
Burkholderia plantarii; 100 times solution sprayed
  Average value of viable bacteria counts on all materials examined: 0 cfu/ml
Burkholderia plantarii; 200 times solution sprayed
  Average value of viable bacteria counts on all materials examined: 65 cfu/ml
Burkholderia plantarii; 500 times solution sprayed
  Average value of viable bacteria counts on all materials examined: 1.5 × 10^2 cfu/ml
Pyricularia oryzae; 2 times solution sprayed
  average value of viable filamentous fungi counts on all materials examined: 0 cfu/ml
Pyricularia oryzae; 5 times solution sprayed
  average value of viable filamentous fungi counts on all materials examined: 0 cfu/ml
Pyricularia oryzae; 25 times solution sprayed
  average value of viable filamentous fungi counts on all materials examined: 0 cfu/ml
Pyricularia oryzae; 50 times solution sprayed
  average value of viable filamentous fungi counts on all materials examined: 0 cfu/ml
Pyricularia oryzae; 100 times solution sprayed
  average value of viable filamentous fungi counts on all materials examined: 0 cfu/ml
Pyricularia oryzae; 200 times solution sprayed
  average value of viable filamentous fungi counts on all materials examined: 1.5 × 10^2 cfu/ml
Pyricularia oryzae; 500 times solution sprayed
  average value of viable filamentous fungi counts on all materials examined: 2.7 × 10^2 cfu/ml
[2]
  sterilization in material disinfection test (in words): complete sterilization
[3]; 2 to 10 times solutions
  sterilization of blackleg pathogens (in words): complete sterilization
[3]; 25 to 50 times solutions
  sterilization effect on blackleg pathogens (in words): high sterilization effect
[4]; 2 to 10 times solutions
  sterilization of ring rot pathogens (in words): complete sterilization
[4]; 25 to 50 times solutions
  sterilization effect on ring rot pathogens (in words): high sterilization effect
Pythium ultimum; 2 times solution sprayed
  average value of viable filamentous fungi counts on all materials examined: 0 cfu/ml
Pythium ultimum; 5 times solution sprayed
  average value of viable filamentous fungi counts on all materials examined: 0 cfu/ml
Pythium ultimum; 25 times solution sprayed
  average value of viable filamentous fungi counts on all materials examined: 0 cfu/ml
Pythium ultimum; 50 times solution sprayed
  average value of viable filamentous fungi counts on all materials examined: 0 cfu/ml
Pythium ultimum; 100 times solution sprayed
  average value of viable filamentous fungi counts on all materials examined: 0 cfu/ml
Pythium ultimum; 200 times solution sprayed
  average value of viable filamentous fungi counts on all materials examined: 73 cfu/ml
Pythium ultimum; 500 times solution sprayed
  average value of viable filamentous fungi counts on all materials examined: 3.1 × 10^3 cfu/ml
Erwinia chrysanthemi; 2 times solution sprayed
  Average value of viable bacteria counts on all materials examined: 0 cfu/ml
Erwinia chrysanthemi; 5 times solution sprayed
  Average value of viable bacteria counts on all materials examined: 0 cfu/ml
Erwinia chrysanthemi; 25 times solution sprayed
  Average value of viable bacteria counts on all materials examined: 0 cfu/ml
Erwinia chrysanthemi; 50 times solution sprayed
  Average value of viable bacteria counts on all materials examined: 0 cfu/ml
Erwinia chrysanthemi; 100 times solution sprayed
  Average value of viable bacteria counts on all materials examined: 0 cfu/ml
Erwinia chrysanthemi; 200 times solution sprayed
  Average value of viable bacteria counts on all materials examined: 53 cfu/ml
Erwinia chrysanthemi; 500 times solution sprayed
  Average value of viable bacteria counts on all materials examined: 3.5 × 10^3 cfu/ml
Burkholderia glumae; 2 times solution sprayed
  Average value of viable bacteria counts on all materials examined: 0 cfu/ml
Burkholderia glumae; 5 times solution sprayed
  Average value of viable bacteria counts on all materials examined: 0 cfu/ml
Burkholderia glumae; 25 times solution sprayed
  Average value of viable bacteria counts on all materials examined: 0 cfu/ml
Burkholderia glumae; 50 times solution sprayed
  Average value of viable bacteria counts on all materials examined: 0 cfu/ml
Burkholderia glumae; 100 times solution sprayed
  Average value of viable bacteria counts on all materials examined: 0 cfu/ml
Burkholderia glumae; 200 times solution sprayed
  Average value of viable bacteria counts on all materials examined: 93 cfu/ml
Burkholderia glumae; 500 times solution sprayed
  Average value of viable bacteria counts on all materials examined: 5.0 × 10^3 cfu/ml
Ralstonia solanacearum; 2 times solution sprayed
  Average value of viable bacteria counts on all materials examined: 0 cfu/ml
Ralstonia solanacearum; 5 times solution sprayed
  Average value of viable bacteria counts on all materials examined: 0 cfu/ml
Ralstonia solanacearum; 25 times solution sprayed
  Average value of viable bacteria counts on all materials examined: 0 cfu/ml
Ralstonia solanacearum; 50 times solution sprayed
  Average value of viable bacteria counts on all materials examined: 0 cfu/ml
Ralstonia solanacearum; 100 times solution sprayed
  Average value of viable bacteria counts on all materials examined: 0 cfu/ml
Ralstonia solanacearum; 200 times solution sprayed
  Average value of viable bacteria counts on all materials examined: 18 cfu/ml
Ralstonia solanacearum; 500 times solution sprayed
  Average value of viable bacteria counts on all materials examined: 1.0 × 10^2 cfu/ml
Rhizoctonia solani; 2 times solution sprayed
  average value of viable filamentous fungi counts on all materials examined: 0 cfu/ml
Rhizoctonia solani; 5 times solution sprayed
  average value of viable filamentous fungi counts on all materials examined: 0 cfu/ml
Rhizoctonia solani; 25 times solution sprayed
  average value of viable filamentous fungi counts on all materials examined: 0 cfu/ml
Rhizoctonia solani; 50 times solution sprayed
  average value of viable filamentous fungi counts on all materials examined: 0 cfu/ml
Rhizoctonia solani; 100 times solution sprayed
  average value of viable filamentous fungi counts on all materials examined: 0 cfu/ml
Rhizoctonia solani; 200 times solution sprayed
  average value of viable filamentous fungi counts on all materials examined: 2.5 × 10^2 cfu/ml
Rhizoctonia solani; 500 times solution sprayed
  average value of viable filamentous fungi counts on all materials examined: 3.1 × 10^2 cfu/ml
